For this experiment, the target named is T1, Human TREM2 (Homo sapiens, UniProt Q9NZC2).
T1 construct: expressed in transfected cells
The experiment is described as follows: Human TREM2 activity: cellular phosphorylation of Syk (AlphaLISA SureFire Ultra p-SYK) in HEK293/DAP12+TREM2 stable cell line. It counts as cell-based. The settings on record: for Emax: HEK293, maximal response relative to reference agonist example 1B (remaining examples), read-out: Emax; for EC50: phospho-Syk AlphaLISA signal, HEK293/DAP12+TREM2 cells, concentration giving 50% of maximal response, read-out: EC50. The procedure, abridged:
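HEK293 cells stably co-expressing human TREM2 and DAP12 were seeded at 10,000 cells/well and used 20–24 h later. Compounds were tested at 8 concentrations (top 100 μM, 1:6 steps, 0.5% DMSO) for 30 min at 37 °C. Syk phosphorylation at Tyr525/526 was read in lysates by AlphaLISA SureFire Ultra.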

T1 sequence (Q9NZC2 19-230): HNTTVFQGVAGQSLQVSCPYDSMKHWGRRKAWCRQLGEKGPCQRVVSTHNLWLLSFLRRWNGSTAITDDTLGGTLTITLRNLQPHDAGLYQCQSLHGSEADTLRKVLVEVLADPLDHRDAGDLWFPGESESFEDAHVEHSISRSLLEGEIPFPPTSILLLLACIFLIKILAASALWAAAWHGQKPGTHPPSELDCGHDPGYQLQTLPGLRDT
T1 sequence (O43914 22-113 partner): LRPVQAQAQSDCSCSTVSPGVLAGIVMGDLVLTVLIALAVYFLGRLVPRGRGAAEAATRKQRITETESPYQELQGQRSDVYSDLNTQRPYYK

Consider `Cc1nc2c(-c3ccc(Cl)cc3F)nc([C@]34CCO[C@H](c5cnn(C6CC6)c5)[C@H]3C4)nc2c(=O)n1C` (single isomer, unassigned) [Example 116A], for which the Emax is < 75% and the EC50 fell in the range of 100 to 1000 nM.
The corresponding values for `Cc1nc2c(-c3ccc(F)cc3F)nc(N3C[C@@H](c4cnn(C)c4)OC(F)(F)C3)cc2c(=O)n1C` (single isomer, unassigned) [Example 166A] are 75 to 110% and 1 to 10 nM.
In the case of `Cn1cc(C2CN(c3nc(-c4ccc(Cl)cc4F)c4ncn(C)c(=O)c4n3)CCO2)cn1` (centres unmarked) [Example 187, 8-(4-chloro-2-fluorophenyl)-3-methyl-6-(2-(1-methyl-1H-pyrazol-4-yl)morpholino)pyrimido[5,4-d]pyrimidin-4 (3H)-one], the maximum response (Emax) is < 75% and the EC50 was 10 to 100 nM.
The corresponding values for `Cc1nc2c(-c3cc(F)c(F)cc3F)nc(N3C[C@H](c4cnn(C)c4)OC(C)(C)C3)cc2c(=O)n1C` (single isomer, unassigned) [Example 150B] are < 75% and > 1000 nM.
As to `Cc1nc2c(-c3ccc(C(F)(F)F)cc3F)nc([C@H]3CCO[C@@H](c4cnn(C5CC5)c4)C3)cc2c(=O)n1C` (single isomer, unassigned) [Example 153B], the Emax is < 75% and the concentration for a half-maximal effect (EC50) was in the range of 100 to 1000 nM.
The corresponding values for `Cc1nc2c(-c3ccc(F)cc3F)nc(N3C[C@@H](c4cnn(C)c4)OC(C)(C)C3)nc2c(=O)n1C` (single isomer, unassigned) [Example 121A] are < 75% and 100 to 1000 nM.
The corresponding values for `Cc1nc2c(-c3ccc(Cl)cc3F)nc(N3CCOC(C(=O)N(C)C)C3)nc2c(=O)n1C` (centres unmarked) [Example 51, 4-(4-(4-chloro-2-fluorophenyl)-6,7-dimethyl-8-oxo-7,8-dihydropyrimido[5,4-d]pyrimidin-2-yl)-N,N-dimethylmorpholine-2-carboxamide] are 75 to 110% and > 1000 nM.
For `Cc1nc2c(-c3ccc(Cl)cc3F)nc(N3CC(Oc4cnn(C)c4)C3)nc2c(=O)n1C` [Example 16, 8-(4-chloro-2-fluorophenyl)-2,3-dimethyl-6-(3-((1-methyl-1H-pyrazol-4-yl)oxy)azetidin-1-yl)pyrimido[5,4-d]pyrimidin-4 (3H)-one], in that order: 75 to 110% and 100 to 1000 nM.
Take `Cc1nc2c(-c3ccc(F)cc3F)nc(N3C[C@@H](c4cnn(C5CC5)c4)O[C@@H](C)C3)cc2c(=O)n1C` (single isomer, unassigned) [Example 190A]: the Emax was 75 to 110% and the EC50 was 10 to 100 nM.
For `Cc1nc(C2CN(c3nc(-c4ccc(Cl)cc4F)c4nc(C)n(C)c(=O)c4n3)CCO2)no1` (centres unmarked) [Example 50, 8-(4-chloro-2-fluorophenyl)-2,3-dimethyl-6-(2-(5-methyl-1,2,4-oxadiazol-3-yl)morpholino)pyrimido[5,4-d]pyrimidin-4(3H)-one], in that order: < 75% and 10 to 100 nM.
For `Cc1cc([C@@H]2CN(c3nc(-c4ccc(F)cc4F)c4nc(C)n(C)c(=O)c4n3)CC(C)(C)O2)ccn1` (single isomer, unassigned) [Example 170A], in that order: < 75% and 100 to 1000 nM.
For `Cc1nc2c(-c3ccc(Cl)cc3F)nc(N3CCC(c4cnn(C)c4)C3)nc2c(=O)n1C` (centres unmarked) [Example 63, 8-(4-chloro-2-fluorophenyl)-2,3-dimethyl-6-[3-(1-methyl-1H-pyrazol-4-yl)pyrrolidin-1-yl]-3H,4H-pyrimido[5,4-d][1,3]diazin-4-one], in that order: < 75% and 10 to 100 nM.
As to `Cc1nc2c(-c3ccc(F)cc3F)nc(N3C[C@H](c4cnn(C)c4)OC(F)(F)C3)nc2c(=O)n1C` (single isomer, unassigned) [Example 156B], the Emax was 75 to 110% and the EC50 was 10 to 100 nM.
For `Cn1cc([C@@H]2CN(c3nc(-c4ccc(F)cc4F)c4nc(C(F)(F)F)n(C)c(=O)c4n3)CC3(CC3)O2)cn1` (single isomer, unassigned) [Example 165A], in that order: 75 to 110% and 1 to 10 nM.
With `Cn1c(C(F)(F)F)nc2c(-c3ccc(F)cc3F)nc([C@H]3CCO[C@@H](c4cnn(C5CC5)c4)C3)cc2c1=O` (single isomer, unassigned) [Example 197B], the Emax is < 75% and the half-maximal effective concentration (EC50) fell in the range of 1 to 10 nM.
For `Cc1cc([C@@H]2CN(c3nc(-c4ccc(C(F)(F)F)cc4F)c4nc(C)n(C)c(=O)c4n3)CCO2)ccn1` (single isomer, unassigned) [Example 21A], in that order: 75 to 110% and 10 to 100 nM.
The corresponding values for `Cc1nc2c(-c3cc(F)c(F)cc3F)nc(N3CCO[C@@H](c4cnn(C)c4)C3)cc2c(=O)n1C` (single isomer, unassigned) [Example 130A] are < 75% and 10 to 100 nM.
Regarding `Cc1cc([C@H]2C[C@@H](c3cc4c(=O)n(C)c(C)nc4c(-c4ccc(F)cc4F)n3)C[C@@H](C)O2)ccn1` [Example 185], the maximal response (Emax) was 75 to 110% and the concentration giving a half-maximal response (EC50) is 1 to 10 nM.
For `Cc1nc2c(-c3ccc(Cl)cc3F)nc(N3CCC(F)(F)C(c4cnn(C)c4)C3)nc2c(=O)n1C` (centres unmarked) [Example 13, 8-(4-chloro-2-fluorophenyl)-6-(4,4-difluoro-3-(1-methyl-1H-pyrazol-4-yl)piperidin-1-yl)-2,3-dimethylpyrimido[5,4-d]pyrimidin-4 (3H)-one], in that order: 75 to 110% and 1 to 10 nM.
The corresponding values for `Cc1nc2c(-c3ccc(Cl)cc3F)nc(N3CCN(CC(F)(F)F)C(c4cnn(C)c4)C3)nc2c(=O)n1C` (centres unmarked) [Example 33, 8-(4-chloro-2-fluorophenyl)-2,3-dimethyl-6-(3-(1-methyl-1H-pyrazol-4-yl)-4-(2,2,2-trifluoroethyl)piperazin-1-yl)pyrimido[5,4-d]pyrimidin-4(3H)-one] are < 75% and 10 to 100 nM.
For `Cc1nc2c(-c3ccc(F)cc3F)nc([C@@H]3CCO[C@H](c4cnn(C5CC5)c4)C3)nc2c(=O)n1C` (single isomer, unassigned) [Example 120A], in that order: < 75% and > 1000 nM.
With `Cc1cc([C@H]2C[C@H](c3nc(-c4ccc(Cl)cc4F)c4nc(C)n(C)c(=O)c4n3)CCO2)ccn1` (single isomer, unassigned) [Example 95], the Emax is < 75% and the EC50 lay within 100 to 1000 nM.
The corresponding values for `Cc1nc2c(-c3ccc(Cl)cc3F)nc(N3CCOC(c4cn(C)nn4)C3)nc2c(=O)n1C` (centres unmarked) [Example 73, 8-(4-chloro-2-fluorophenyl)-2,3-dimethyl-6-(2-(1-methyl-1H-1,2,3-triazol-4-yl)morpholino)pyrimido[5,4-d]pyrimidin-4 (3H)-one] are 75 to 110% and 100 to 1000 nM.
As for `Cc1nc2c(-c3ccc(F)c(F)c3)nc(N3CCOC(c4cnn(C)c4)C3)nc2c(=O)n1C` (centres unmarked) [Example 9, 8-(3,4-difluorophenyl)-2,3-dimethyl-6-(2-(1-methyl-1H-pyrazol-4-yl)morpholino)pyrimido[5,4-d]pyrimidin-4(3H)-one], the maximal effect (Emax) was < 75% and the 50% effective concentration (EC50) lay within 100 to 1000 nM.
The corresponding values for `Cc1cc([C@H]2CN(c3nc(-c4ccc(C(F)(F)F)nc4)c4nc(C)n(C)c(=O)c4n3)CC(C)(C)O2)ccn1` (single isomer, unassigned) [Example 164B] are < 75% and 1 to 10 nM.
The corresponding values for `Cc1nc2c(-c3ccc(Cl)cc3F)cc(N3C[C@H](c4cnn(C)c4)OC(C)(C)C3)nc2c(=O)n1C` (single isomer, unassigned) [Example 142B] are 75 to 110% and 10 to 100 nM.
For `Cc1nc2c(-c3ccc(C(F)(F)F)nc3)nc(N3CCC(F)(F)[C@@H](c4cnn(C)c4)C3)nc2c(=O)n1C` (single isomer, unassigned) [Example 93], in that order: 75 to 110% and 10 to 100 nM.
As for `Cc1nc2c(-c3ccc(Cl)cc3F)nc(N3C[C@@H](c4cnn(C5CC5)c4)OC(C)(C)C3)nc2c(=O)n1C` (single isomer, unassigned) [Example 110A], the maximal response (Emax) is 75 to 110% and the EC50 lay within 1 to 10 nM.
For `Cc1nc2c(-c3ccc(Cl)cc3F)nc(N3C[C@@H](c4cnn(C)n4)OC(C)(C)C3)cc2c(=O)n1C` (single isomer, unassigned) [Example 147A], in that order: < 75% and 10 to 100 nM.
The corresponding values for `Cc1nc2c(-c3ccc(Cl)cc3F)nc(N3C[C@@H](c4cnn(C)c4)OC(F)(F)C3)nc2c(=O)n1C` (single isomer, unassigned) [Example 149A] are 75 to 110% and < 1 nM.
As to `Cc1nc2c(-c3ccc(F)cc3F)nc(N3C[C@H](c4cnn(C)c4)OC(F)(F)C3)cc2c(=O)n1C` (single isomer, unassigned) [Example 166B], the Emax was < 75% and the concentration giving a half-maximal response (EC50) was 10 to 100 nM.
As for `Cc1nc2c(-c3ccc(C(F)(F)F)nc3)nc(N3C[C@@H](C)O[C@@H](c4cnn(C5CC5)c4)C3)cc2c(=O)n1C` (single isomer, unassigned) [Example 184B], the Emax is < 75% and the EC50 fell in the range of 10 to 100 nM.
For `Cc1nc2c(-c3ccc(Cl)cc3F)nc(N3CCOC(c4ncc[nH]4)C3)nc2c(=O)n1C` (centres unmarked) [Example 81, 6-(2-(1H-imidazol-2-yl)morpholino)-8-(4-chloro-2-fluorophenyl)-2,3-dimethylpyrimido[5,4-d]pyrimidin-4(3H)-one], in that order: < 75% and > 1000 nM.
`Cc1nc2c(-c3ccc(Cl)cc3F)nc(N3CCO[C@@H](c4cnn(C5CC5)c4)C3)cc2c(=O)n1C` (single isomer, unassigned) [Example 131B]: the maximum response (Emax) is < 75% and the half-maximal effective concentration (EC50) lay within 100 to 1000 nM.

Values taken from US20260200926A1, “TREM2 MODULATORS” (Muna Therapeutics ApS, priority 2022, published 2026).
